Several values for one entry are separate records, joined by “and”; a condition that tells them apart may be missing. Equal values may be shown once. Inconclusive results and toxic doses are left out. Rule for the calls: active = survival T/C of 150% or more; inactive = T/C below 125% in these data. Residues, ends and D or L forms follow the SMILES beside them. *: point of attachment. Cbz = O=C(OCc1ccccc1)*
Test system: BDF1 mice, P388 leukemia ip, median survival T/C
Assay: NCI In Vivo Anticancer Drug Screen. Data for tumor model P388 Leukemia (intraperitoneal) in B6D2F1 (BDF1) mice
Details: endpoint: median survival time, higher = longer survival
Method in brief: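 Survival ratio, drug arm over vehicle arm, in mice with a transplanted tumour.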

[1] = dose: 200.0 mg/kg/injection, schedule: Q01DX009 (ip), vehicle: saline with Tween-80
[2] = dose: 50.0 mg/kg/injection, schedule: Q04DX003 (ip), vehicle: saline
[3] = dose: 100.0 mg/kg/injection, schedule: Q04DX003 (ip), vehicle: saline
[4] = dose: 200.0 mg/kg/injection, schedule: Q04DX003 (ip), vehicle: saline
[5] = dose: 400.0 mg/kg/injection, schedule: Q04DX003 (ip), vehicle: saline
[6] = dose: 50.0 mg/kg/injection, schedule: Q01DX009 (ip), vehicle: saline with Tween-80
[7] = dose: 100.0 mg/kg/injection, schedule: Q01DX009 (ip), vehicle: saline with Tween-80
[8] = dose: 400.0 mg/kg/injection, schedule: Q01DX009 (ip), vehicle: saline with Tween-80
[9] = dose: 25.0 mg/kg/injection, schedule: Q01DX009 (ip), vehicle: saline with Tween-80
[10] = dose: 6.25 mg/kg/injection, schedule: Q01DX009 (ip), vehicle: saline
[11] = dose: 12.5 mg/kg/injection, schedule: Q01DX009 (ip), vehicle: saline
[12] = dose: 25.0 mg/kg/injection, schedule: Q01DX009 (ip), vehicle: saline
[13] = dose: 50.0 mg/kg/injection, schedule: Q01DX009 (ip), vehicle: saline
[14] = dose: 100.0 mg/kg/injection, schedule: Q01DX009 (ip), vehicle: saline

Measured: T/C

Cc1ccc(C2(C(=O)O)CCCC2)cc1
inactive: dose: 65.0 mg/kg/injection, schedule: Q01DX009 (ip), vehicle: Klucel (hydroxypropylcellulose) (HPC) 103 % of control | dose: 150.0 mg/kg/injection, schedule: Q01DX009 (ip), vehicle: Klucel (hydroxypropylcellulose) (HPC) 94 % of control | [1] 91 % of control

C[N+](C)(C)CCC[n+]1ccc(CCn2ccc3ccccc32)cc1
inactive: dose: 25.0 mg/kg/injection, schedule: Q01DX001 (ip), vehicle: saline 100 % of control | dose: 50.0 mg/kg/injection, schedule: Q01DX001 (ip), vehicle: saline 105 % of control | dose: 100.0 mg/kg/injection, schedule: Q01DX001 (ip), vehicle: saline 105 % of control

O=C(CSc1ccccc1)NCc1cnccn1
inactive: [2] 108 % of control | [3] 92 % of control | [4] 104 % of control | [5] 100 % of control

CC1(Cl)C(=O)NC(=O)C1Cl (stereo not given)
inactive: dose: 3.12 mg/kg/injection, schedule: Q04DX003 (ip), vehicle: saline 92 % of control | dose: 6.25 mg/kg/injection, schedule: Q04DX003 (ip), vehicle: saline 95 % of control | dose: 12.5 mg/kg/injection, schedule: Q04DX003 (ip), vehicle: saline 100 % of control | dose: 25.0 mg/kg/injection, schedule: Q04DX003 (ip), vehicle: saline 104 % of control | [2] 104 % of control | [3] 113 % of control

COc1ccccc1NC(=O)N(CCCl)N=O
inactive: dose: 0.1 mg/kg/injection, schedule: Q04DX003 (ip), vehicle: saline with Tween-80 110 % of control | dose: 0.2 mg/kg/injection, schedule: Q04DX003 (ip), vehicle: saline with Tween-80 100 % of control | dose: 0.4 mg/kg/injection, schedule: Q04DX003 (ip), vehicle: saline with Tween-80 105 % of control | dose: 0.8 mg/kg/injection, schedule: Q04DX003 (ip), vehicle: saline with Tween-80 110 % of control

NCCNCc1c[nH]c(=O)[nH]c1=O
inactive: [6] 113 % of control | [7] 111 % of control | [1] 101 % of control

CNNCc1ccc(/C=N/NC(N)=S)cc1
inactive: dose: 6.25 mg/kg/injection, schedule: Q01DX009 (ip), vehicle: water 106 % of control | dose: 12.5 mg/kg/injection, schedule: Q01DX009 (ip), vehicle: water 114 % of control | dose: 25.0 mg/kg/injection, schedule: Q01DX009 (ip), vehicle: water 92 % of control | dose: 50.0 mg/kg/injection, schedule: Q01DX009 (ip), vehicle: water 92 % of control

CCOC(=O)NCCCNC(=O)OCC
inactive: [3] 115 % of control | [4] 115 % of control | [5] 105 % of control

Nc1cccs1
inactive: dose: 9.38 mg/kg/injection, schedule: Q01DX009 (ip), vehicle: other 104 % of control | dose: 18.75 mg/kg/injection, schedule: Q01DX009 (ip), vehicle: other 100 % of control | dose: 37.5 mg/kg/injection, schedule: Q01DX009 (ip), vehicle: other 100 % of control | [6] 98 % of control | dose: 75.0 mg/kg/injection, schedule: Q01DX009 (ip), vehicle: other 98 % of control | [7] 116 % of control | dose: 150.0 mg/kg/injection, schedule: Q01DX009 (ip), vehicle: other 101 % of control | [1] 114 % of control | [8] 87 % of control

CCOc1c(Br)cc(Br)cc1C=O
inactive: [7] 104 % of control | dose: 100.0 mg/kg/injection, schedule: Q04DX003 (ip), vehicle: saline with Tween-80 109 % of control | [1] 113 % of control | dose: 200.0 mg/kg/injection, schedule: Q04DX003 (ip), vehicle: saline with Tween-80 109 % of control | [8] 100 % of control | dose: 400.0 mg/kg/injection, schedule: Q04DX003 (ip), vehicle: saline with Tween-80 95 % of control

COC1c2cnc(C)n2C=CN1C(C)=O (stereo not given)
inactive: [3] 99 % of control | [4] 104 % of control | dose: 300.0 mg/kg/injection, schedule: Q04DX003 (ip), vehicle: saline 94 % of control

CCOC(=O)CNC(=O)C(CC(C)C)NC(=O)C1CCCN1C(=O)OCc1ccccc1 (stereo not drawn) (Cbz-Pro-Leu-Gly-OEt; configuration not given here)
inactive: dose: 12.5 mg/kg/injection, schedule: Q01DX009 (ip), vehicle: Klucel (hydroxypropylcellulose) (HPC) 124 % of control | dose: 25.0 mg/kg/injection, schedule: Q01DX009 (ip), vehicle: Klucel (hydroxypropylcellulose) (HPC) 89 % of control | dose: 50.0 mg/kg/injection, schedule: Q01DX009 (ip), vehicle: Klucel (hydroxypropylcellulose) (HPC) 95 % of control | dose: 100.0 mg/kg/injection, schedule: Q04DX003 (ip), vehicle: Klucel (hydroxypropylcellulose) (HPC) 87 % of control | dose: 200.0 mg/kg/injection, schedule: Q04DX003 (ip), vehicle: Klucel (hydroxypropylcellulose) (HPC) 91 % of control | dose: 400.0 mg/kg/injection, schedule: Q04DX003 (ip), vehicle: Klucel (hydroxypropylcellulose) (HPC) 87 % of control

Cc1c(O)ccc([N+](=O)[O-])c1O
inactive: dose: 6.25 mg/kg/injection, schedule: Q01DX009 (ip), vehicle: saline with Tween-80 91 % of control | dose: 6.25 mg/kg/injection, schedule: Q04DX003 (ip), vehicle: saline with Tween-80 104 % of control | dose: 12.5 mg/kg/injection, schedule: Q01DX009 (ip), vehicle: saline with Tween-80 100 % of control | dose: 12.5 mg/kg/injection, schedule: Q04DX003 (ip), vehicle: saline with Tween-80 91 % of control | [9] 91 % of control | dose: 25.0 mg/kg/injection, schedule: Q04DX003 (ip), vehicle: saline with Tween-80 104 % of control

CCOC(=O)C1OC(n2cnc3c(N)ncnc32)C(O)C1O (stereo not given)
inactive: [10] 103 % of control | [11] 94 % of control | [12] 94 % of control | [13] 92 % of control

C=CCCCCCCCCC(=O)NCCCN1CCOCC1
inactive: [9] 100 % of control | [6] 109 % of control | [7] 100 % of control

Cc1ccc(S(=O)(=O)/C=C/c2ccccc2)cc1
inactive: [6] 100 % of control | [7] 100 % of control | [1] 103 % of control

COc1cc(/C=N/OCc2cc3c(cc2Cl)OCO3)cc(OC)c1OC
inactive: dose: 100.0 mg/kg/injection, schedule: Q04DX003 (ip), vehicle: saline sonified 95 % of control | dose: 200.0 mg/kg/injection, schedule: Q04DX003 (ip), vehicle: saline sonified 90 % of control | dose: 400.0 mg/kg/injection, schedule: Q04DX003 (ip), vehicle: saline sonified 104 % of control

COC(C)C(NC(=O)C1CCCN1C)C1OC(SCCOC(=O)c2ccccc2O)C(O)C(O)C1O (stereo not given)
inactive: [13] 100 % of control | [14] 100 % of control and 101 % of control (2×) | dose: 200.0 mg/kg/injection, schedule: Q01DX009 (ip), vehicle: saline 104 % of control

Nc1cc(Cl)c2[nH]cnc2n1
inactive: [10] 114 % of control | [11] 100 % of control | [12] 110 % of control | dose: 50.0 mg/kg/injection, schedule: Q01DX005 (ip), vehicle: distilled water + Tween-80 105 % of control | [13] 115 % of control | [14] 100 % of control

O=[N+]([O-])c1cccc(/C=C/c2cc(N(CCO)CCO)c3ccccc3n2)c1
inactive: [6] 91 % of control | [7] 89 % of control | [1] 94 % of control

Source: PubChem BioAssay AID328 (DTP/NCI, 2004)
